BindingDB's records for PubMed 9808667 (Dupont Pharmaceuticals, 1998)
Square brackets hold non-standard residues; d marks the D form. Peptide text beside a SMILES is read from it.

Target: T1, Galanin receptor type 1 (Homo sapiens, UniProt P47211)
T1 sequence (P47211 whole entry): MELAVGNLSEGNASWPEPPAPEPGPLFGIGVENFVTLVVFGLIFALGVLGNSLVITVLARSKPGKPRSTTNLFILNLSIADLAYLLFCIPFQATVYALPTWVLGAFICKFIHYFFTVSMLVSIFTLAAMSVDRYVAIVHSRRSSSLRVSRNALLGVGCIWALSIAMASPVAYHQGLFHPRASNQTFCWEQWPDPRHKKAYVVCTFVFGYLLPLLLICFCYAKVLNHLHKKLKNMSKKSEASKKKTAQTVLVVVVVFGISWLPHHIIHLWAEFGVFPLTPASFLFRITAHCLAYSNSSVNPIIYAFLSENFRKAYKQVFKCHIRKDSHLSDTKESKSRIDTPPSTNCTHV

CC(C)C[C@H](NC(=O)[C@H](CC(C)C)NC(=O)[C@@H](Cc1c[nH]c2ccccc12)NC(=O)[C@H](Cc1ccccc1)NC(=O)[C@@H](Cc1c[nH]c2ccccc12)NC(=O)[C@H](CCC(N)=O)NC(=O)[C@H](CCC(N)=O)NC(=O)[C@@H]1CCCN1C(=O)[C@H](CCCCN)NC(=O)[C@@H]1CCCN1C(=O)[C@@H](CCCNC(=N)N)NC(=O)[C@@H]1CCCN1C(=O)CNC(=O)[C@H](CC(C)C)NC(=O)[C@H](CC(C)C)NC(=O)[C@H](Cc1ccc(O)cc1)NC(=O)CNC(=O)[C@H](C)NC(=O)[C@H](CO)NC(=O)[C@H](CC(N)=O)NC(=O)[C@H](CC(C)C)NC(=O)[C@@H](NC(=O)[C@H](Cc1c[nH]c2ccccc12)NC(=O)CN)[C@@H](C)O)C(N)=O [Gal(1-13)-Std I] (H-GWTLNSAGYLLGP[dR]PKPQQ[dW]F[dW]LL-NH2)
Ki: 685 nM
